Laboratory results: paper PMC8500670, “A selective WDR5 degrader inhibits acute myeloid leukemia in patient-derived mouse models” (Science translational medicine, 2021)

Assays:
Test in all cases: biochemical
PAK4(h) = PAK4(h) (Homo sapiens, UniProt O96013); parameters: kinase selectivity panel, activity as per cent of control, single concentration in duplicate; conditions: read-out: % of control remaining
Description: (§1) We next assessed selectivity of MS67 against 22 protein methyltransferases (table S2) and a broad panel of common drug targets including 45 kinases (table S3) and 44 G protein–coupled receptors (GPCR), ion channels, and transporters (table S4). […] We subsequently determined that MS67 had moderate binding affinity (Ki = 1.0 ± 0.8 μM) to Sigma 2 receptor (fig. S10).

FGFR2(h) = FGFR2(h) (Homo sapiens, UniProt P21802); parameters: kinase selectivity panel, activity as per cent of control, single concentration in duplicate; conditions: read-out: % of control remaining
Sequence of FGFR2(h) (P21802 whole entry): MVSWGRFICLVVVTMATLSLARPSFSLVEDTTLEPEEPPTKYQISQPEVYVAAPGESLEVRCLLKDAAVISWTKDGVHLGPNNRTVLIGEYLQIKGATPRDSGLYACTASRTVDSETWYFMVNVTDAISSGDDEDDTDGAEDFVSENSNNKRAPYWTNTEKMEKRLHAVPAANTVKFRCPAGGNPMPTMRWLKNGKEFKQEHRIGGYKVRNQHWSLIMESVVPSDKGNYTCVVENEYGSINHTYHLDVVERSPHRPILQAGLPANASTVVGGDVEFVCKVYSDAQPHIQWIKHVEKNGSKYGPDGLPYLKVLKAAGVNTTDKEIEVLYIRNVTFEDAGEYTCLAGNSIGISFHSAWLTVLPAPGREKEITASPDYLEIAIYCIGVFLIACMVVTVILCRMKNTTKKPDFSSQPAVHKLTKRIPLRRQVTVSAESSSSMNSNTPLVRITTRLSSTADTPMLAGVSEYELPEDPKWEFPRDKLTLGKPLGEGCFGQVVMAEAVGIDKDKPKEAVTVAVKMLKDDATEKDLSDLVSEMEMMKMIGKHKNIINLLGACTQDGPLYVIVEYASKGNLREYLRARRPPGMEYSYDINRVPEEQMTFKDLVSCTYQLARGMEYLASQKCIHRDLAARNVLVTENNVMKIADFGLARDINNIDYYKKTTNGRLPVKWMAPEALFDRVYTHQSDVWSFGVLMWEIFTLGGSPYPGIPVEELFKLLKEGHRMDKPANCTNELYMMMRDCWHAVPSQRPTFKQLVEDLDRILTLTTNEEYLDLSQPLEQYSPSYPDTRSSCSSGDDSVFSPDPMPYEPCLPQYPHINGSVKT
Description: as §1

Pim-2(h) = target: T1, Pim-2(h) (Homo sapiens, UniProt Q9P1W9); parameters: kinase selectivity panel, activity as per cent of control, single concentration in duplicate; conditions: read-out: % of control remaining
T1 construct: gene PIM2
Description: as §1

TAO2(h) = target: T2, TAO2(h) (Homo sapiens, UniProt Q9UL54); parameters: kinase selectivity panel, activity as per cent of control, single concentration in duplicate; conditions: read-out: % of control remaining
T2 construct: gene TAOK2
Description: as §1

CDK2/cyclinA(h) = CDK2/cyclinA(h) (Homo sapiens, UniProt P24941); parameters: kinase selectivity panel, activity as per cent of control, single concentration in duplicate; conditions: read-out: % of control remaining
Description: as §1

SGK(h) = target: T3, SGK(h) (Homo sapiens, UniProt O00141); parameters: kinase selectivity panel, activity as per cent of control, single concentration in duplicate; conditions: read-out: % of control remaining
T3 construct: gene SGK1
Description: as §1

CHK2(h) = target: T4, CHK2(h) (Homo sapiens, UniProt O96017); parameters: kinase selectivity panel, activity as per cent of control, single concentration in duplicate; conditions: read-out: % of control remaining
T4 construct: gene CHEK2
Description: as §1

Lck(h) = Lck(h) (Homo sapiens, UniProt P06239); parameters: kinase selectivity panel, activity as per cent of control, single concentration in duplicate; conditions: read-out: % of control remaining
Sequence of Lck(h) (P06239 whole entry): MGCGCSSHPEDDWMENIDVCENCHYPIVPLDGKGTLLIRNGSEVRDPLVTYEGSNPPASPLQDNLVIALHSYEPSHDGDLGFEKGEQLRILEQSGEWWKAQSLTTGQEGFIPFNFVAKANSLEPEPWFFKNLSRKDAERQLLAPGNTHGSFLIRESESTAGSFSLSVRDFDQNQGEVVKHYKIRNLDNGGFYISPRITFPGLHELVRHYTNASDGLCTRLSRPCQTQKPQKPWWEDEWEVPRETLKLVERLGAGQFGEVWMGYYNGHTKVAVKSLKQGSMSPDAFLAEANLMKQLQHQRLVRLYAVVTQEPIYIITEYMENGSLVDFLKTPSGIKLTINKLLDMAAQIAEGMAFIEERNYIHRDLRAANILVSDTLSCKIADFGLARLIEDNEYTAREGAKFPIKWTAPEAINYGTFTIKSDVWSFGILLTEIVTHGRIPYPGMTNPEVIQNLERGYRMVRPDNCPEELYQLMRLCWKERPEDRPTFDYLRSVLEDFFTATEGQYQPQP
Description: as §1

IKKα(h) = target: T5, IKKα(h) (Homo sapiens, UniProt O15111); parameters: kinase selectivity panel, activity as per cent of control, single concentration in duplicate; conditions: read-out: % of control remaining
T5 construct: gene CHUK
Description: as §1

JNK1α1(h) = target: T6, JNK1α1(h) (Homo sapiens, UniProt P45983); parameters: kinase selectivity panel, activity as per cent of control, single concentration in duplicate; conditions: read-out: % of control remaining
T6 construct: gene MAPK8; isoform alpha1
T6 sequence (P45983 whole entry, canonical isoform): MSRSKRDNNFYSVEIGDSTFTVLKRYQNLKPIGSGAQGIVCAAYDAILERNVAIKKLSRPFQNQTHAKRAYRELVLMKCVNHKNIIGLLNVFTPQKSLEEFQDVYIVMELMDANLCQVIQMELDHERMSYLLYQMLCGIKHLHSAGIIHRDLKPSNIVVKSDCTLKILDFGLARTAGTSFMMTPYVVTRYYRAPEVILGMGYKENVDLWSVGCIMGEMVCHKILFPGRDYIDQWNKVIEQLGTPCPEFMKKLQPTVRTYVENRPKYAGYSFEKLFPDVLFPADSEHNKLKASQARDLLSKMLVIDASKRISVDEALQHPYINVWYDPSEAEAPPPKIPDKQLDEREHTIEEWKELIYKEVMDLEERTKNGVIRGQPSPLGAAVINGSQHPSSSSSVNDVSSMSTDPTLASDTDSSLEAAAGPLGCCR
Description: as §1

JAK3(h) = JAK3(h) (Homo sapiens, UniProt P52333); parameters: kinase selectivity panel, activity as per cent of control, single concentration in duplicate; conditions: read-out: % of control remaining
Description: as §1

PDK1(h) = target: T7, PDK1(h) (Homo sapiens, UniProt O15530); parameters: kinase selectivity panel, activity as per cent of control, single concentration in duplicate; conditions: read-out: % of control remaining
T7 construct: gene PDPK1
T7 sequence (O15530 whole entry): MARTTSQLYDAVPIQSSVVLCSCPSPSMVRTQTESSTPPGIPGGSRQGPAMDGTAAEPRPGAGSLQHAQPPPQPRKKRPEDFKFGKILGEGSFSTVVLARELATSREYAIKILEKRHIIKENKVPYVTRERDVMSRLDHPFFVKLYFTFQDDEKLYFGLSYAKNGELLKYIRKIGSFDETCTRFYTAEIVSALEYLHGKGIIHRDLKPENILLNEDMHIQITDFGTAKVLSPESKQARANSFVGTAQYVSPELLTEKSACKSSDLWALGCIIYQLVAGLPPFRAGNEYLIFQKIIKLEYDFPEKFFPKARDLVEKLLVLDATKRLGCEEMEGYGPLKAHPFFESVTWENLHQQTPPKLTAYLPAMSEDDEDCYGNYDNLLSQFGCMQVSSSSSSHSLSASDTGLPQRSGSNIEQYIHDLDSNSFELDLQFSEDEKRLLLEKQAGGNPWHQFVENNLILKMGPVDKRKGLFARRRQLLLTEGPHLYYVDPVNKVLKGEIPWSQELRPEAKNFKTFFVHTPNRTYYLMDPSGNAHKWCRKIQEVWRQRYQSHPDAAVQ
Description: as §1

PKCβII(h) = target: T8, PKCβII(h) (Homo sapiens, UniProt P05771); parameters: kinase selectivity panel, activity as per cent of control, single concentration in duplicate; conditions: read-out: % of control remaining
T8 construct: gene PRKCB; isoform betaII
Description: as §1

EGFR(h) = EGFR(h) (Homo sapiens, UniProt P00533); parameters: kinase selectivity panel, activity as per cent of control, single concentration in duplicate; conditions: read-out: % of control remaining
Description: as §1

EphA2(h) = EphA2(h) (Homo sapiens, UniProt P29317); parameters: kinase selectivity panel, activity as per cent of control, single concentration in duplicate; conditions: read-out: % of control remaining
Description: as §1

ROCK-I(h) = target: T9, ROCK-I(h) (Homo sapiens, UniProt Q13464); parameters: kinase selectivity panel, activity as per cent of control, single concentration in duplicate; conditions: read-out: % of control remaining
T9 construct: gene ROCK1
T9 sequence (Q13464 whole entry): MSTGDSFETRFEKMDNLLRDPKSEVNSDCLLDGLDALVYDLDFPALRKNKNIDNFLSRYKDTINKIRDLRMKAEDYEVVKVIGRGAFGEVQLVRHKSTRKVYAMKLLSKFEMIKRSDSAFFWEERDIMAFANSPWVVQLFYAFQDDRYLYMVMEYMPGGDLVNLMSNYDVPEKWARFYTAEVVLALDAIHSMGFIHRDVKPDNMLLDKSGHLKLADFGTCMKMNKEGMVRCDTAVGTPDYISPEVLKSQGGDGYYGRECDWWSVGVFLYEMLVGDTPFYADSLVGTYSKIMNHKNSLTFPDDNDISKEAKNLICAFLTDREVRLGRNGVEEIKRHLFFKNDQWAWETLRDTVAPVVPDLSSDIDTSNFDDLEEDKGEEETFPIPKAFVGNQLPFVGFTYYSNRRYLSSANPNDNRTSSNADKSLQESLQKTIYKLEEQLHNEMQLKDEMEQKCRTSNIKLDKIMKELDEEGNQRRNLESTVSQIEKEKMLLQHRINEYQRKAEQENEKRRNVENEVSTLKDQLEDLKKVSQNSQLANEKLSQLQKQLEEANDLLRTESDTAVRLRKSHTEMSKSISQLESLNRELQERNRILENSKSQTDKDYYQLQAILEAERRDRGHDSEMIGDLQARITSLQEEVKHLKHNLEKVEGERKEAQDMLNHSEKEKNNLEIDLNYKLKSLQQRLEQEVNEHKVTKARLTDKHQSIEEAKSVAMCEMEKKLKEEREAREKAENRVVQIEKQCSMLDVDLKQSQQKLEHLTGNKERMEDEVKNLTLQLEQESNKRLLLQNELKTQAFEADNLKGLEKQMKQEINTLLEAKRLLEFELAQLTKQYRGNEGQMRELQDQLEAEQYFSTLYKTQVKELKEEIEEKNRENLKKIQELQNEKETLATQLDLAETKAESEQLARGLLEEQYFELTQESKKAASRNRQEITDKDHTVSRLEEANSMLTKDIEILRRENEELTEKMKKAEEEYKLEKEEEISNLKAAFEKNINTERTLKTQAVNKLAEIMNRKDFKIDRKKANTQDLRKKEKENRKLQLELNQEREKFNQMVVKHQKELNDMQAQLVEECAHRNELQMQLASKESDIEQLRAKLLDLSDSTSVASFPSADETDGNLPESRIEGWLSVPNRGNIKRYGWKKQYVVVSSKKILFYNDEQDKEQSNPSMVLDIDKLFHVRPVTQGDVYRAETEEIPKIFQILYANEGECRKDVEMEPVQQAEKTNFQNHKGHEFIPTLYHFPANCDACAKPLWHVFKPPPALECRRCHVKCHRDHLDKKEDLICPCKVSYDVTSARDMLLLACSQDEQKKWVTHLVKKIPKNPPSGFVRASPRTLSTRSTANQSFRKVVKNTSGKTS
Description: as §1

TrkA(h) = target: T10, TrkA(h) (Homo sapiens, UniProt P04629); parameters: kinase selectivity panel, activity as per cent of control, single concentration in duplicate; conditions: read-out: % of control remaining
T10 construct: gene NTRK1
T10 sequence (P04629 whole entry): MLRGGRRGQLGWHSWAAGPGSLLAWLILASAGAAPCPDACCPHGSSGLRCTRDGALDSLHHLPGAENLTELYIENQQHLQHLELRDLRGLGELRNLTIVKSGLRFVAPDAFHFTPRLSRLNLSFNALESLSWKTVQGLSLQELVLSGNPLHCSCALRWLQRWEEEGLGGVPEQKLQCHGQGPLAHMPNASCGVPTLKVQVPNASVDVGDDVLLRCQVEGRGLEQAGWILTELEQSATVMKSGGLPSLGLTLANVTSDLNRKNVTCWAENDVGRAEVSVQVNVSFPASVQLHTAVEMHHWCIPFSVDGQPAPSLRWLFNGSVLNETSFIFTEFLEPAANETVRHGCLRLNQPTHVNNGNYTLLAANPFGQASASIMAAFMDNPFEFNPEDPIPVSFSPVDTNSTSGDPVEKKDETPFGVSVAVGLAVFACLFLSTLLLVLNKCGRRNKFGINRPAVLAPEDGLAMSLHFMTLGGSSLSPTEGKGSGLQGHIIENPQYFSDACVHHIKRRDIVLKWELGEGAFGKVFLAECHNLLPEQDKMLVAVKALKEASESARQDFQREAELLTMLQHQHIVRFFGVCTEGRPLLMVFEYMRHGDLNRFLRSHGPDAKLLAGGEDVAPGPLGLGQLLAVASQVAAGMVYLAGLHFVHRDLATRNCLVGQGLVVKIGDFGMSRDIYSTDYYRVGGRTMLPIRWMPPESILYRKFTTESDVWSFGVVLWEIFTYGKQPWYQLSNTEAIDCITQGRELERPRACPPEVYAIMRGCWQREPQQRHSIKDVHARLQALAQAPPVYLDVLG
Description: as §1

MAP4K4(h) = MAP4K4(h) (Homo sapiens, UniProt O95819); parameters: kinase selectivity panel, activity as per cent of control, single concentration in duplicate; conditions: read-out: % of control remaining
Description: as §1

Mnk2(h) = target: T11, Mnk2(h) (Homo sapiens, UniProt Q9HBH9); parameters: kinase selectivity panel, activity as per cent of control, single concentration in duplicate; conditions: read-out: % of control remaining
T11 construct: gene MKNK2
Description: as §1

cSRC(h) = target: T12, cSRC(h) (Homo sapiens, UniProt P12931); parameters: kinase selectivity panel, activity as per cent of control, single concentration in duplicate; conditions: read-out: % of control remaining
T12 construct: gene SRC
Description: as §1

5-HT1B = target: T13, 5-HT1B (Homo sapiens, UniProt P28222); parameters: GPCR, ion channel and transporter panel, per cent inhibition of binding, mean of four
T13 construct: gene HTR1B
Description: as §1

MOR = target: T14, MOR (Homo sapiens, UniProt P35372); parameters: GPCR, ion channel and transporter panel, per cent inhibition of binding, mean of four
T14 construct: gene OPRM1
T14 sequence (P35372 whole entry): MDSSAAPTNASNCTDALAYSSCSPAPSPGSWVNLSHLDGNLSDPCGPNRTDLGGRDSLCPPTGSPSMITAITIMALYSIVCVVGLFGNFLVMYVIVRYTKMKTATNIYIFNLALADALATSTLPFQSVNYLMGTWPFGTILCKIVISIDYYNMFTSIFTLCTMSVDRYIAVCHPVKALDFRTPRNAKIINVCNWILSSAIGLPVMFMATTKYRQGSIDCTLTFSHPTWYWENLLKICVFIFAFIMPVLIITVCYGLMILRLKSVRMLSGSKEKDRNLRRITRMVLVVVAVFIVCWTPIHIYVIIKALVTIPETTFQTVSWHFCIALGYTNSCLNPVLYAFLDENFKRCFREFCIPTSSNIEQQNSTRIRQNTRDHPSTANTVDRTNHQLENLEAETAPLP
Description: as §1

D2 = target: T15, D2 (Homo sapiens, UniProt P14416); parameters: GPCR, ion channel and transporter panel, per cent inhibition of binding, mean of four
T15 construct: gene DRD2
Description: as §1

SERT = target: T16, SERT (Homo sapiens, UniProt P31645); parameters: GPCR, ion channel and transporter panel, per cent inhibition of binding, mean of four
T16 construct: gene SLC6A4
Description: as §1

H3 = target: T17, H3 (Homo sapiens, UniProt Q9Y5N1); parameters: GPCR, ion channel and transporter panel, per cent inhibition of binding, mean of four
T17 construct: gene HRH3
Description: as §1

Cc1ncsc1-c1ccc([C@H](C)NC(=O)[C@@H]2C[C@@H](O)CN2C(=O)[C@@H](NC(=O)CNC(=O)c2ccc(F)c(-c3ccc(N4C[C@@H](C)N(C)[C@@H](C)C4)c(NC(=O)c4c[nH]c(=O)cc4C(F)(F)F)c3)c2)C(C)(C)C)cc1 [MS67]
remaining activity at 1 µM (PAK4(h)): 95% | remaining activity at 1 µM (FGFR2(h)): 84% | remaining activity at 1 µM (Pim-2(h)): 99% | remaining activity at 1 µM (TAO2(h)): 95% | remaining activity at 1 µM (CDK2/cyclinA(h)): 91% | remaining activity at 1 µM (SGK(h)): 113% | remaining activity at 1 µM (CHK2(h)): 97% | remaining activity at 1 µM (Lck(h)): 97% | remaining activity at 1 µM (IKKα(h)): 96% | remaining activity at 1 µM (JNK1α1(h)): 104% | remaining activity at 1 µM (JAK3(h)): 100% | remaining activity at 1 µM (PDK1(h)): 110% | remaining activity at 1 µM (PKCβII(h)): 112% | remaining activity at 1 µM (EGFR(h)): 101% | remaining activity at 1 µM (EphA2(h)): 80% | remaining activity at 1 µM (ROCK-I(h)): 109% | remaining activity at 1 µM (TrkA(h)): 94% | remaining activity at 1 µM (MAP4K4(h)): 100% | remaining activity at 1 µM (Mnk2(h)): 125% | remaining activity at 1 µM (cSRC(h)): 96% | inhibition at 1 µM (5-HT1B): 5.37% | inhibition at 1 µM (MOR): 21.7% | inhibition at 1 µM (D2): 25.5% | inhibition at 1 µM (SERT): 8.01% | inhibition at 1 µM (H3): 21.1%
